Experimental data from patent US10479795B2 (Incyte Corporation, priority 2016, dated 2019).
pIC50: −log10 of the molar value. Structures can show the parent of a compound that is named as a salt.

Tests used:
[1] = molecular target: PI3Kδ (p110δ/p85α) Recombinant Human Protein (Homo sapiens (Human), UniProt O00329); assay: PI3Kδ Scintillation Proximity Assay; assay type: biochemical
Method in brief: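 Assay conditions: 2 μM ATP (radiolabelled), 20 μM PIP2, 3.4 nM PI3Kδ, 20 mM MOPS pH 6.7 with 10 mM MgCl2, 5 mM DTT, 0.03% CHAPS, 2 h at room temperature. Signal from bead-captured 33P product; IC50 versus solvent control.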

[2] = molecular target: PI3Kγ (p110γ) Recombinant Human Protein (Homo sapiens (Human), UniProt P48736); assay: PI3K-γ Scintillation Proximity Assay; assay type: biochemical; details: read-out: PI3Kγ IC50
Method in brief: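 Radiometric SPA readout: […] bound to WGA beads after overnight shaking, IC50 derived from % activity of DMSO control. Reaction used human p110γ, 2 μM ATP, 20 μM PIP2, pH 6.7 MOPS buffer with MgCl2, DTT, CHAPS, 2% DMSO, room temperature.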

[3] = tested on: Phosphorylated Ribosomal Protein S6 (RPS6); assay: THP-1 RPS6 ELISA Assay; assay type: cell-based, Human; details: Homo sapiens; THP-1 cells; read-out: PI3Kγ_THP1_RPS6_ELISA IC50
Method in brief: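 IC50 values come from a curve of percent inhibition against log compound concentration, using phospho-RPS6 ELISA (450 nm) on THP-1 lysates. Cells were serum-starved overnight, exposed to compound for 2 h at 37 °C, then challenged 15 min with 10 nM MCP-1.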

PI3Kγ (p110γ) Recombinant Human Protein, sequence (P48736 whole entry): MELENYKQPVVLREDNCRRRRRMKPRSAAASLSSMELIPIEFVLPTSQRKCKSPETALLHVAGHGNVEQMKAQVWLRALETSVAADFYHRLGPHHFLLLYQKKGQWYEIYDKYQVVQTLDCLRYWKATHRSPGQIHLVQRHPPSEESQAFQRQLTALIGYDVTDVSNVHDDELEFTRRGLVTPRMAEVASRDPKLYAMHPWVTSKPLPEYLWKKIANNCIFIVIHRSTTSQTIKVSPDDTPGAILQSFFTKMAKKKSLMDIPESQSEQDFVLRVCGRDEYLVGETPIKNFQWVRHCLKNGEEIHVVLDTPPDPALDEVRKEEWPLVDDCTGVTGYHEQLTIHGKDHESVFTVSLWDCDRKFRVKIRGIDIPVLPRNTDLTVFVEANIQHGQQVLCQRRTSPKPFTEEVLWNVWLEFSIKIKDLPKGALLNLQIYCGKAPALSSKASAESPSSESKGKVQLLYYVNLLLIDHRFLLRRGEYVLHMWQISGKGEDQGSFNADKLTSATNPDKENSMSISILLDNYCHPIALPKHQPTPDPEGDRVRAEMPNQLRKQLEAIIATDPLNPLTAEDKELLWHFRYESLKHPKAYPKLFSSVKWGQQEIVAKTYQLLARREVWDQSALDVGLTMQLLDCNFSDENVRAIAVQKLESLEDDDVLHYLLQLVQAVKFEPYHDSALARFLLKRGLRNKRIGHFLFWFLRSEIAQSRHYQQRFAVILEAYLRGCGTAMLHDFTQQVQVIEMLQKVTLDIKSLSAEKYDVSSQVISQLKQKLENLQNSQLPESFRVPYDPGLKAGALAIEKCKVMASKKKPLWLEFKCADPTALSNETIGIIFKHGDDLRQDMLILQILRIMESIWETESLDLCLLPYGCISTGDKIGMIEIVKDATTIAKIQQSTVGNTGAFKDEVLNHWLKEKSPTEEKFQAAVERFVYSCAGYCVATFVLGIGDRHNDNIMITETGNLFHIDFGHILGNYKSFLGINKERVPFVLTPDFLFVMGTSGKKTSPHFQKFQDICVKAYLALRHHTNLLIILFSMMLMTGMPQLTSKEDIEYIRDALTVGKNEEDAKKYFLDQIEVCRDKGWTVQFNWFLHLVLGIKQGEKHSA
PI3Kδ (p110δ/p85α) Recombinant Human Protein, sequence (O00329 whole entry): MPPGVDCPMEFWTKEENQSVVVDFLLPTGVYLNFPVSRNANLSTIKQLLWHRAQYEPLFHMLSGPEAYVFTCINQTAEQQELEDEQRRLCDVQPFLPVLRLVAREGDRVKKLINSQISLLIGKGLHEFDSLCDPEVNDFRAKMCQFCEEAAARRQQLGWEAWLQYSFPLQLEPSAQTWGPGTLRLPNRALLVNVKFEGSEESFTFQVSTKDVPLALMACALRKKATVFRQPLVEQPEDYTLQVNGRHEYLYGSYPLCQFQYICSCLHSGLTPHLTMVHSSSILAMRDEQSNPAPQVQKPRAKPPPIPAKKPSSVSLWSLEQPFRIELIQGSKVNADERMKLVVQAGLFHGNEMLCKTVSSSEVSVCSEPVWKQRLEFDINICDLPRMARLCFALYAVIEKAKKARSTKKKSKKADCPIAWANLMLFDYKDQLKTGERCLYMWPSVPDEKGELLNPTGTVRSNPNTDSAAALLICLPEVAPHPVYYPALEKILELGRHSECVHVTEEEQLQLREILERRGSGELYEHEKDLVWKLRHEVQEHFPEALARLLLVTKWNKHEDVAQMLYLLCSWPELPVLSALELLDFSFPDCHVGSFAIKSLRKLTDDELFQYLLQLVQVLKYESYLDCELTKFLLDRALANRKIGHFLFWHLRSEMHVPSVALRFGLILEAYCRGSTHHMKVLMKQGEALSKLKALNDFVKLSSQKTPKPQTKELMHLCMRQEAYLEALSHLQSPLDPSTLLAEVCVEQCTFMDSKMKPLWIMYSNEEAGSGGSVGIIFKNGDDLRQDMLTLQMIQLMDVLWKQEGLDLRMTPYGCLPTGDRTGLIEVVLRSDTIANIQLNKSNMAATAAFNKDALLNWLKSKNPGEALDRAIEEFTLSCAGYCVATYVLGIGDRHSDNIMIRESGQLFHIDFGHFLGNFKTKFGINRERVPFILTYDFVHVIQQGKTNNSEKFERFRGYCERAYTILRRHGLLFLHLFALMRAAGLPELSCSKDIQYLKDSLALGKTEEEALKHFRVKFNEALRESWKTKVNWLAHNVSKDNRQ
PI3Kδ (p110δ/p85α) Recombinant Human Protein, sequence (P27986 whole entry partner): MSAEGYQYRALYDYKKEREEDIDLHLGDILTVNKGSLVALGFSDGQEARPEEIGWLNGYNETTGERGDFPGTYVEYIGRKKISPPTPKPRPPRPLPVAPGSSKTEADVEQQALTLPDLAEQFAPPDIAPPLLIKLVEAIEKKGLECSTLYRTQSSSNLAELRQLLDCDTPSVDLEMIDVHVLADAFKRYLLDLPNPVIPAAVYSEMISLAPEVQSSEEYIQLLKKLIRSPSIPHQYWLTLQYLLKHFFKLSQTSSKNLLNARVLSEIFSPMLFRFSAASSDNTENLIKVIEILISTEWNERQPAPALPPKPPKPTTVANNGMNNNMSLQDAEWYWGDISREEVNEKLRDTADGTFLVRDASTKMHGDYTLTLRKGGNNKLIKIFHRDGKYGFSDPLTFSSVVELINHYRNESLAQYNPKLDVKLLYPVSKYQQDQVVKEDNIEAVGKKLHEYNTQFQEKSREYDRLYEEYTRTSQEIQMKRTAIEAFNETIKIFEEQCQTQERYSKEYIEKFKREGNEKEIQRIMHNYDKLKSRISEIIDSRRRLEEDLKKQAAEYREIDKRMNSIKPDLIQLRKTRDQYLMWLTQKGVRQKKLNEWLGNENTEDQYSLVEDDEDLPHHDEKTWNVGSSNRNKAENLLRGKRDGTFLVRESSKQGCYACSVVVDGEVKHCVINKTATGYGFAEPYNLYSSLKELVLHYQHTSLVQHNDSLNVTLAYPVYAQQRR

| SMILES | pIC50 [1] | pIC50 [2] | pIC50 [3] |
| --- | --- | --- | --- |
| Cc1ccc(S(=O)(=O)NC23CCC(CO)(CC2)OC3)cc1-c1cnc2c(N)ncnn12 [Example 433, 3-(4-Aminoimidazo[1,2-f][1,2,4]triazin-7-yl)-N-(1-(hydroxymethyl)-2-oxabicyclo[2.2.2]octan-4-yl)-4-methylbenzenesulfonamide trifluoroacetate salt] | 6.30 to 7.00 | > 7.00 | 6.30 to 7.00 |
| Cc1ccc(S(=O)(=O)NC23CCC(CN4CCOCC4)(CC2)OC3)cc1-c1cnc2c(N)ncnn12 [Example 434, 3-(4-Aminoimidazo[1,2-f][1,2,4]triazin-7-yl)-4-methyl-N-(1-(morpholinomethyl)-2-oxabicyclo[2.2.2]octan-4-yl)benzenesulfonamide trifluoroacetate salt] | 6.30 to 7.00 | > 7.00 | 6.30 to 7.00 |
| Cc1ccc(S(=O)(=O)NC23CCC(CN4CC(F)(F)C4)(CC2)OC3)cc1-c1cnc2c(N)ncnn12 [Example 435, 3-(4-Aminoimidazo[1,2-f][1,2,4]triazin-7-yl)-N-(1-((3,3-difluoroazetidin-1-yl)methyl)-2-oxabicyclo[2.2.2]octan-4-yl)-4-methylbenzenesulfonamide trifluoroacetate salt] | 6.30 to 7.00 | > 7.00 | 6.00 to 6.30 |
| Cc1ccc(S(=O)(=O)NC23CCC(C(F)F)(CC2)OC3)cc1-c1cnc2c(N)ncnn12 [Example 436, 3-(4-aminoimidazo[1,2-f][1,2,4]triazin-7-yl)-N-(1-(difluoromethyl)-2-oxabicyclo[2.2.2]octan-4-yl)-4-methylbenzenesulfonamide trifluoroacetate salt] | 6.30 to 7.00 | > 7.00 | 6.30 to 7.00 |
| Cc1ccc(S(=O)(=O)NC23CCC(c4nccn4C)(CC2)OC3)cc1-c1cnc2c(N)ncnn12 [Example 439, 3-(4-Aminoimidazo[1,2-f][1,2,4]triazin-7-yl)-4-methyl-N-(1-(1-methyl-1H-imidazol-2-yl)-2-oxabicyclo[2.2.2]octan-4-yl)benzenesulfonamide trifluoroacetate salt] | 5.70 to 6.30 | > 7.00 | 6.00 to 6.30 |
| Cc1ccc(S(=O)(=O)NC23CCC(c4cnco4)(CC2)OC3)cc1-c1cnc2c(N)ncnn12 [Example 440, 3-(4-Aminoimidazo[1,2-f][1,2,4]triazin-7-yl)-4-methyl-N-(1-(oxazol-5-yl)-2-oxabicyclo[2.2.2]octan-4-yl)benzenesulfonamide trifluoroacetate salt] | 6.30 to 7.00 | > 7.00 | 6.30 to 7.00 |
| Cc1ccc(S(=O)(=O)NC23CCC(C(C)(C)O)(CC2)OC3)cc1-c1cnc2c(N)nc(C(F)(F)F)cn12 [Example 441, 3-(8-Amino-6-(trifluoromethyl)imidazo[1,2-a]pyrazin-3-yl)-N-(1-(2-hydroxypropan-2-yl)-2-oxabicyclo[2.2.2]octan-4-yl)-4-methylbenzenesulfonamide trifluoroacetate salt] | 6.30 to 7.00 | > 7.00 | 6.30 to 7.00 |
| Cc1ccc(S(=O)(=O)NC23CCC(O)(CC2)C3)cc1-c1cnc2c(N)ncnn12 [Example 442, 3-(4-Aminoimidazo[1,2-f][1,2,4]triazin-7-yl)-N-((1s,4s)-4-hydroxybicyclo[2.2.1]heptan-1-yl)-4-methylbenzenesulfonamide trifluoroacetate salt] | 5.70 to 6.30 | > 7.00 | 6.30 to 7.00 |
| Cc1nc(N)c2ncc(-c3cc(S(=O)(=O)NC45CCC(O)(CC4)C5)ccc3C)n2n1 [Example 443, 3-(4-Amino-2-methylimidazo[1,2-f][1,2,4]triazin-7-yl)-N-(4-hydroxybicyclo[2.2.1]heptan-1-yl)-4-methylbenzenesulfonamide trifluoroacetate salt] | > 7.00 | > 7.00 | 6.30 to 7.00 |
| Cc1ccc(S(=O)(=O)NC23CCC(O)(CC2)C3)cc1-c1cnc2c(N)nc(C(F)(F)F)cn12 [Example 444, 3-(8-Amino-6-(trifluoromethyl)imidazo[1,2-a]pyrazin-3-yl)-N-(4-hydroxybicyclo[2.2.1]heptan-1-yl)-4-methylbenzenesulfonamide trifluoroacetate salt] | > 7.00 | > 7.00 | 6.30 to 7.00 |
| CNC(=O)c1cn2c(-c3cc(S(=O)(=O)NCC4CC(F)(F)C4)ccc3C)cnc2c(N)n1 [Example 445, 8-Amino-3-(5-(N-((3,3-difluorocyclobutyl)methyl)sulfamoyl)-2-methylphenyl)-N-methylimidazo[1,2-a]pyrazine-6-carboxamide trifluoroacetate salt] | 6.30 to 7.00 | > 7.00 | 6.30 to 7.00 |
| Cc1ccc(S(=O)(=O)NCC2CC(F)(F)C2)cc1-c1cnc2c(N)nc(C(=O)NC3CCC3)cn12 [Example 446, 8-amino-N-cyclobutyl-3-(5-(N-((3,3-difluorocyclobutyl)methyl)sulfamoyl)-2-methylphenyl)imidazo[1,2-a]pyrazine-6-carboxamide trifluoroacetate salt] | 6.30 to 7.00 | > 7.00 | 6.30 to 7.00 |
| CNC(=O)c1cn2c(-c3cc(S(=O)(=O)NC4CC(F)(F)C4)ccc3C)cnc2c(N)n1 [Example 447, 8-Amino-3-(5-(N-(3,3-difluorocyclobutyl)sulfamoyl)-2-methylphenyl)-N-methylimidazo[1,2-a]pyrazine-6-carboxamide trifluoroacetate salt] | 5.70 to 6.30 | > 7.00 | 6.00 to 6.30 |
| Cc1ccc(S(=O)(=O)NC2CC(F)(F)C2)cc1-c1cnc2c(N)nc(C(=O)NC3CCC3)cn12 [Example 448, 8-amino-N-cyclobutyl-3-(5-(N-(3,3-difluorocyclobutyl)sulfamoyl)-2-methylphenyl)imidazo[1,2-a]pyrazine-6-carboxamide trifluoroacetate salt] | 5.70 to 6.30 | > 7.00 | 6.30 to 7.00 |
| CNC(=O)c1cn2c(-c3cc(S(=O)(=O)N[C@H]4CC[C@H](CC#N)OC4)ccc3C)cnc2c(N)n1 [Example 449, 8-Amino-3-(5-(N-((3S,6R)-6-(cyanomethyl)tetrahydro-2H-pyran-3-yl)sulfamoyl)-2-methylphenyl)-N-methylimidazo[1,2-a]pyrazine-6-carboxamide trifluoroacetate salt] | 6.30 to 7.00 | > 7.00 | < 6.00 |
| Cc1ccc(S(=O)(=O)N[C@H]2CC[C@H](CC#N)OC2)cc1-c1cnc2c(N)nc(C(=O)NC3CCC3)cn12 [Example 450, 8-amino-3-(5-(N-((3S,6R)-6-(cyanomethyl)tetrahydro-2H-pyran-3-yl)sulfamoyl)-2-methylphenyl)-N-cyclobutylimidazo[1,2-a]pyrazine-6-carboxamide trifluoroacetate salt] | 6.30 to 7.00 | > 7.00 | 6.00 to 6.30 |
| Cc1ccc(S(=O)(=O)N[C@H]2CC[C@H](CC#N)OC2)cc1-c1cnc2c(N)nc(C(=O)NC3CC(F)(F)C3)cn12 [Example 451, 8-amino-3-(5-(N-((3S,6R)-6-(cyanomethyl)tetrahydro-2H-pyran-3-yl)sulfamoyl)-2-methylphenyl)-N-(3,3-difluorocyclobutyl)imidazo[1,2-a]pyrazine-6-carboxamide trifluoroacetate salt] | 6.30 to 7.00 | > 7.00 | 6.00 to 6.30 |
| Cc1ccc(S(=O)(=O)N[C@H]2CC[C@](C)(O)CC2)cc1-c1cnc2c(N)ncnn12 [Example 463, 3-(4-Aminoimidazo[2,1-f][1,2,4]triazin-7-yl)-N-((1r,4r)-4-hydroxy-4-methylcyclohexyl)-4-methylbenzenesulfonamide] | 6.30 to 7.00 | > 7.00 | 6.30 to 7.00 |
| Cc1ccc(S(=O)(=O)N2CCC[C@@H](N)C2)cc1-c1cnc2c(N)nc(C(F)(F)F)cn12 [Example 464, (R)-3-(5-((3-Aminopiperidin-1-yl)sulfonyl)-2-methylphenyl)-6-(trifluoromethyl)imidazo[1,2-a]pyrazin-8-amine tris(2,2,2-trifluoroacetate)] | > 7.00 | > 7.00 | > 7.00 |
| Cc1cn2c(-c3cc(S(=O)(=O)N[C@@H]4CC[C@@H](C(C)(C)O)OC4)c(C)cc3C)cnc2c(N)n1 [Example 465, 5-(8-Amino-6-methylimidazo[1,2-a]pyrazin-3-yl)-N-((3R,6S)-6-(2-hydroxypropan-2-yl)tetrahydro-2H-pyran-3-yl)-2,4-dimethylbenzenesulfonamide] | 5.70 to 6.30 | > 7.00 | 6.30 to 7.00 |
| Cc1c(F)cc(S(=O)(=O)N[C@H]2CC[C@H](CC#N)OC2)cc1-c1cnc2c(N)nc(C(F)(F)F)nn12 [Example 466, 3-(4-Amino-2-(trifluoromethyl)imidazo[2,1-f][1,2,4]triazin-7-yl)-N-((3S,6R)-6-(cyanomethyl)tetrahydro-2H-pyran-3-yl)-5-fluoro-4-methylbenzenesulfonamide] | > 7.00 | > 7.00 | > 7.00 |
| Cc1ccc(S(=O)(=O)N[C@H]2CC[C@H](CF)OC2)cc1-c1cnc2c(N)ncnn12 [Example 467, 3-(4-Aminoimidazo[2,1-f][1,2,4]triazin-7-yl)-N-((3S,6R)-6-(fluoromethyl)tetrahydro-2H-pyran-3-yl)-4-methylbenzenesulfonamide] | 6.30 to 7.00 | > 7.00 | > 7.00 |
